From patent US8629127B2, “Compositions and methods of treatment for inflammatory diseases” (The Board of Regents of the University of Oklahoma, priority 2004, dated 2014)

Key:
[1] = tested on: TNBS-induced colitis; experiment: Histological assessment of TNBS-induced colitis; format: in vivo, rat; settings: for Cumulative (aggregate) microscopic colitis injury score: 8 days after TNBS, 5-day treatment, scale 0-15; for Decrease in aggregate microscopic injury score: 11 days after TNBS, 8-day treatment, vs TNBS alone
From the text: Male Sprague Dawley rats (200-250 grams) were housed in cages containing contact bedding. Rats were deprived of food for 24 hrs prior to the induction of colitis, but were allowed free access to water throughout the experiment. Institutional approval for experimental protocols was provided by the research and animal care committees of the research services at the Oklahoma City Veterans Administration Medical Center. Following a 24 hr fast, rats were lightly anesthetized using isoflurane followed by insertion of a polyethylene catheter into the anus. The tip of the catheter was advanced 8 cm proximal from the anus and a single dose of TNBS (Sigma, St. Louis, Mo.), dissolved in 50% ethanol, was injected through the cannula (15 mg dissolved in a 0.6 ml volume of 50% ethanol) to induce colitis. Following the administration of TNBS the animals were maintained in a head-down position for approximately 60 seconds to prevent leakage of the infusate. After 72 hrs, rats dosed initially with TNBS were randomly assigned to one of four treatment groups to receive daily intracolonic therapy in a manner similar to that used for TNBS administration. […] An additional group of rats (Group E) served as control and received saline per rectum on day 0 and at subsequent intervals that corresponded to treatment protocols. Rats were treated for either 5 or 8 days and then sacrificed by cervical dislocation. FIG. 1 illustrates the design of these experiments. Colonic tissue samples taken from the initial segment were immersed in 10% phosphate buffered formalin and subsequently embedded in paraffin. Sections of 3 micron thickness were cut and stained with hematoxylin and eosin. The slides were then evaluated by a pathologist for epithelial damage, architectural changes, mononuclear infiltration, polymorphonuclear leukocyte (PMN) infiltration and ulceration. The individual microscopic features of colitis were graded according to criteria noted in Table 2. In addition to scoring individual features of colitis, an aggregate score of colitis was tabulated by adding together individual scores, thus, providing a global assessment of colitis. [table]

[2] = tested on: Myeloperoxidase activity; experiment: Myeloperoxidase activity in colon tissue, TNBS colitis; format: in vivo, rat; settings: 11 days after TNBS; 8-day treatment
Protocol: Following a 24 hr fast, rats were lightly anesthetized using isoflurane followed by insertion of a polyethylene catheter into the anus. The tip of the catheter was advanced 8 cm proximal from the anus and a single dose of TNBS (Sigma, St. Louis, Mo.), dissolved in 50% ethanol, was injected through the cannula (15 mg dissolved in a 0.6 ml volume of 50% ethanol) to induce colitis. Following the administration of TNBS the animals were maintained in a head-down position for approximately 60 seconds to prevent leakage of the infusate. After 72 hrs, rats dosed initially with TNBS were randomly assigned to one of four treatment groups to receive daily intracolonic therapy in a manner similar to that used for TNBS administration. […] An additional group of rats (Group E) served as control and received saline per rectum on day 0 and at subsequent intervals that corresponded to treatment protocols. Rats were treated for either 5 or 8 days and then sacrificed by cervical dislocation. FIG. 1 illustrates the design of these experiments. Myeloperoxidase activity was used as an indirect measure of the severity of colonic inflammation by PMNs. […] C. The tissues were then removed from storage at −80° C. and allowed to thaw on ice. […] The absorbance changes were read at 450 nm and recorded. Results were expressed as ng/ml/g of tissue.

[3] = tested on: TNBS-induced colitis; experiment: Macroscopic assessment of TNBS-induced colitis; format: in vivo, rat; settings: scale 0-6
From the text: Male Sprague Dawley rats (200-250 grams) were housed in cages containing contact bedding. Rats were deprived of food for 24 hrs prior to the induction of colitis, but were allowed free access to water throughout the experiment. Institutional approval for experimental protocols was provided by the research and animal care committees of the research services at the Oklahoma City Veterans Administration Medical Center.
Following a 24 hr fast, rats were lightly anesthetized using isoflurane followed by insertion of a polyethylene catheter into the anus. The tip of the catheter was advanced 8 cm proximal from the anus and a single dose of TNBS (Sigma, St. Louis, Mo.), dissolved in 50% ethanol, was injected through the cannula (15 mg dissolved in a 0.6 ml volume of 50% ethanol) to induce colitis. Following the administration of TNBS the animals were maintained in a head-down position for approximately 60 seconds to prevent leakage of the infusate. After 72 hrs, rats dosed initially with TNBS were randomly assigned to one of four treatment groups to receive daily intracolonic therapy in a manner similar to that used for TNBS administration. […] An additional group of rats (Group E) served as control and received saline per rectum on day 0 and at subsequent intervals that corresponded to treatment protocols. Rats were treated for either 5 or 8 days and then sacrificed by cervical dislocation. FIG. 1 illustrates the design of these experiments.
Upon sacrifice, the distal 8 cm of the colon was removed, opened by a longitudinal incision and rinsed with phosphate buffered saline to remove fecal material. Macroscopic assessment of colitis was carried out by an independent observer who was unaware of the treatment groups. Inflammation was present if the mucosa was erythematous. Ulceration of the mucosa was defined as a distinct break or interruption of the mucosa. Once macroscopic damage was assessed full thickness colonic tissue samples were taken from the inflamed areas and either processed for histology or snap frozen in liquid nitrogen for subsequent cytokine measurement and determination of myeloperoxidase (MPO) activity.

[4] = tested on: DSS-induced colitis; experiment: Histological assessment of DSS-induced colitis; format: in vivo, rat; settings: DSS colitis (4% DSS, 4 days); 4-day intracolonic treatment; maximal score 12
From the text: Male Sprague Dawley rats (200-250 grams) were housed in cages containing contact bedding. Rats were deprived of food for 24 hrs prior to the induction of colitis, but were allowed free access to water throughout the experiment. Institutional approval for experimental protocols was provided by the research and animal care committees of the research services at the Oklahoma City Veterans Administration Medical Center. Colitis was induced by oral administration of a 4% solution of DSS (dextran sulfate sodium) in drinking water for 4 days. […] Animals received treatment for 4 days. Macroscopic indices of colonic injury were scored and tabulated. Histological features that were examined included epithelial damage and mucosal ulceration. Additional measures included determination of serum C-reactive protein (CRP) levels and cytokine gene expression in colonic tissues performed by ribonuclease protection assay (RPA). Colonic tissue samples taken from the initial segment were immersed in 10% phosphate buffered formalin and subsequently embedded in paraffin. Sections of 3 micron thickness were cut and stained with hematoxylin and eosin. The slides were then evaluated by a pathologist for epithelial damage, architectural changes, mononuclear infiltration, polymorphonuclear leukocyte (PMN) infiltration and ulceration. […]

[5] = tested on: TNF-α; experiment: Cytokine gene expression in rat colon (RPA), TNBS colitis; format: in vivo; settings: 11 days after TNBS, 8-day treatment
Protocol: (§1) Following a 24 hr fast, rats were lightly anesthetized using isoflurane followed by insertion of a polyethylene catheter into the anus. The tip of the catheter was advanced 8 cm proximal from the anus and a single dose of TNBS (Sigma, St. Louis, Mo.), dissolved in 50% ethanol, was injected through the cannula (15 mg dissolved in a 0.6 ml volume of 50% ethanol) to induce colitis. Following the administration of TNBS the animals were maintained in a head-down position for approximately 60 seconds to prevent leakage of the infusate. After 72 hrs, rats dosed initially with TNBS were randomly assigned to one of four treatment groups to receive daily intracolonic therapy in a manner similar to that used for TNBS administration. […] An additional group of rats (Group E) served as control and received saline per rectum on day 0 and at subsequent intervals that corresponded to treatment protocols. Rats were treated for either 5 or 8 days and then sacrificed by cervical dislocation. FIG. 1 illustrates the design of these experiments. Following the manufacturer's protocol, 1 ml of TRI Reagent (Sigma, St. Louis, Mo.) is used per 100 mg of tissue. The frozen tissue is placed into the TRI Reagent and immediately homogenized using a tissue macerator. The homogenates are transferred to microcentrifuge tubes and 0.2 ml of chloroform is added per ml of TRI Reagent used. The samples are shaken thoroughly and allowed to sit at room temp for 3 min. Samples were then centrifuged at 12000×g for 15 min at […]. After centrifugation, the upper aqueous phase was transferred to a new tube and […] of 2-propanol is added to precipitate the RNA. After sitting at room temp for 10 min. the samples are centrifuged at 12000×g for 15 min. The supernatants are discarded and the pellets are washed in 70% ethanol followed by centrifugation at 12000×g for 5 min. The ethanol was removed and the pellets are dissolved in 50 μl of DEPC treated water per sample. Quantitation is performed by spectrophotometry at 260 nm and 280 nm. RPA analysis was performed with RiboQuant™ multi-probe RNase protection assay system (BD Biosciences-Pharmingen, San Diego, Calif.). To 20 μg of total RNA in 8 μl of hybridization buffer and 2 μl of ^32P-labeled in vitro transcribed RNA probes were added. The probes were transcribed from the multiprobe template set rCK-1 which as a panel of probes against IL-1a, IL-1b, IL-3, IL-5, IL-10, IL-2, TNFα, TNBβ, GAPDH genes. Probes were prepared according to the manufactures protocol. The RNA samples containing labeled probes were incubated briefly at 90° C., slowly cooled to 56° C. and hybridized overnight at that temperature. The samples were then slowly cooled to 30° C. Thereafter, a mixture of RNases A and T1 was added to digest single-stranded RNA leaving the double-stranded RNA formed by the probes annealing to their cognate mRNAs intact. Following proteinase K digestion and phenol-chloroform extraction, the undigested double-stranded RNA was precipitated with ammonium acetate and ethanol. […] The ethanol was removed and the pellets were dissolved in 5 μl of formamide loading dye. The double-stranded RNAs were resolved on a 5% polyacrylamide/urea gel run in TBE buffer. After electrophoresis, the gel was dried at 80° C. under vacuum and then exposed to a PhosphorImager screen overnight. Detection and quantitation of the resolved bands on the gel were performed on a Storm PhosphorImager™ system (Amersham Biosciences, Piscataway, N.J.).

[6] = tested on: IL-6; experiment: as above; format: in vivo; settings: 11 days after TNBS, 8-day treatment
Protocol: as §1

[7] = tested on: IL-1B; experiment: as above; format: in vivo; settings: 11 days after TNBS, 8-day treatment
Protocol: as §1

[8] = tested on: IL-4; experiment: as above; format: in vivo; settings: 11 days after TNBS, 8-day treatment
Protocol: as §1

[9] = tested on: IL-1A; experiment: as above; format: in vivo; settings: 11 days after TNBS, 8-day treatment
Protocol: as §1

[10] = patients with inflammatory bowel disease; cited from earlier work
[11] = 8 days after TNBS, 5-day intracolonic treatment, 5-ASA 100 mg/kg, NAC 40 mM
[12] = 11 days after TNBS, 8-day intracolonic treatment

Structure (SMILES) | Cumulative (aggregate) microscopic colitis injury score [1] | Decrease in aggregate microscopic injury score [1] | Reduction of MPO activity below TNBS values [2] | Macroscopic injury score [3, 11] | Macroscopic injury score [3, 12] | Aggregate microscopic injury score [4] | TNF-α gene expression, Mean ± SEM [5] | IL-6 gene expression, Mean ± SEM [6] | IL-1B gene expression, Mean ± SEM [7] | IL-4 gene expression, Mean ± SEM [8] | IL-1A gene expression, Mean ± SEM [9] | Patients who cannot tolerate this medication (side effects) [10]
Nc1ccc(O)c(C(=O)O)c1 [5-ASA, 5-aminosalicylic acid] | 9.0±0.9 | 46% | 32% | 3.0±0.7 | 1.8±0.2 | 4.1±0.9 | 1.25 ± 0.12 Relative O.D units | 0.79 ± 0.22 Relative O.D units | 11.49 ± 2.54 Relative O.D units | 1.40 ± 0.25 Relative O.D units | 1.33 ± 0.18 Relative O.D units | –
CC(=O)N[C@@H](CS)C(=O)O [NAC, N-acetylcysteine] | 9.0±1.8 | 53% | 40% | 4.1±0.6 | 1.2±0.2 | 4.0±1.1 | 1.04 ± 0.017 Relative O.D units | 0.76 ± 0.14 Relative O.D units | 11.88 ± 1.0 Relative O.D units | 1.20 ± 0.26 Relative O.D units | 1.28 ± 0.16 Relative O.D units | –
O=C(O)c1cc(/N=N/c2ccc(S(=O)(=O)Nc3ccccn3)cc2)ccc1O [sulfasalazine] | – | – | – | – | – | – | – | – | – | – | – | up to one third
